Experiment [1] relates to spontaneously hypertensive rat. Briefly: Hypotensive activity in spontaneously hypertensive rats. Format: in vivo. The note with it: po, orally, conscious spontaneously hypertensive rat, male, 20 to 23 weeks old, read-out: maximum effect (%) (mean ratio of maximum decrease in the blood pressure). The procedure:
Hypotensive Activity in Rats
Method: A spontaneously hypertensive rat (male, 20 to 23 weeks old) was operated in advance for retaining a cannula for blood pressure measurement in the left femoral artery. The experiment was carried out for the rat when waking on the next day after the operation. The cannula was connected with a transducer (Specrtramed) upon the experiment and the blood pressure was measured (Nippon Koden, Japan). A test compound was suspended in gum arabic and the suspension was administered orally.

Experiment [2] has as its system Rat Aorta Sample (constriction by KCl). Briefly: Vasorelaxation activity in rat aorta sample: effect on constriction caused by potassium chloride (KCl). The class given is cell-based, Male Wister rats. The note with it: KCl (80 mM), rat aorta ring, read-out: constriction inhibitory ratio (%). The procedure: (§1) Vasorelaxation Activity in Rat Aorta Sample
Effect on Relaxation Caused by Potassium Chloride (KCl)
Method: According to the same manner as that described in Experiment 1, this experiment was carried out except that KCl (80 mM) was used instead of TEA and Ba.
Result: The results are shown in Table 4 in terms of the inhibitory ratio of the test compound.

Experiment [3] relates to Rat Aorta Sample (constriction by TEA and Ba). Briefly: Vasorelaxation activity in rat aorta sample: effect on constriction caused by tetraethylammonium chloride (TEA) and barium chloride (Ba). Format: cell-based, Male Wister rats. The note with it: TEA (30 to 45 mM) and Ba (0.3 mM), rat aorta ring, read-out: constriction inhibitory ratio (%). The procedure:
as §1
Effect on Relaxation Caused by Tetraethylammonium Chloride (TEA) and Barium Chloride (Ba)
Method: Male Wister rats (10 to 13 weeks old) were used for the experiment. After dehematization, the aorta was excised and a ring sample (5 mm) was prepared. The sample was suspended in a bath filled with oxygenated (95% O2 -5% CO2) Krebs solution (36° C.). The ring sample was fixed at one end and the other end was connected to a transducer (Nippon Koden, Japan) for recording tension and the tension was measured. After a stabilization period of 1 hour, TEA (30 to 45 mM) and Ba (0.3 mM) were added to the bath to cause vasoconstriction. After the constriction has reached a steady state (after about 15 minutes), a test compound was added to the bath and its relaxation activity was measured.
Result: The results are shown in Table 3 in terms of the inhibitory ratio of the test compound.

Consider `CC1(C)N=C(c2cccc[n+]2[O-])c2cc(C(F)(F)F)ccc2O1` [Compound 75, 2-(6-trifluoromethyl-2,2-dimethyl-2H-1,3-benzoxazin-4-yl)pyridine N-oxide], for which, in experiment [1], the inhibition in vivo at 1 mg/kg was 54%. For the same compound, in experiment [2], the inhibition at 1 µM was -2%, the inhibition at 3 µM is 1% and the inhibition at 10 µM was determined as 2%. In addition, in experiment [3], the inhibition at 1 µM amounted to 38%, the inhibition at 3 µM was 91% and the inhibition at 10 µM came to 100%.
`CC1(C)N=C(c2cccc[n+]2[O-])c2cc(C(F)(F)C(F)(F)F)ccc2O1` [Compound 77, 2-(6-pentafluoroethyl-2,2-dimethyl-2H-1,3-benzoxazin-4-yl)pyridine N-oxide]: in experiment [1], the inhibition in vivo at 1 mg/kg came out at 25%. For the same compound, in experiment [2], the inhibition at 3 µM came to 3% and the inhibition at 10 µM amounted to 10%. Further, in experiment [3], the inhibition at 3 µM came out at 45% and the inhibition at 10 µM amounted to 98%.
Turning to `CC1(C)N=C(c2cccc[n+]2[O-])c2cc(Cl)c(Cl)cc2O1` [Compound 79, 2-(6,7-dichloro-2,2-dimethyl-2H-1,3-benzoxazin-4-yl)pyridine N-oxide], in experiment [1], the inhibition in vivo at 1 mg/kg was 36%. Also, in experiment [2], the inhibition at 1 µM is -5%, the inhibition at 3 µM is -1% and the inhibition at 10 µM was determined as 3%. In experiment [3], the inhibition at 1 µM stood at 24%, the inhibition at 3 µM is 57% and the inhibition at 10 µM is 65%.
As for `CC1(C)N=C(c2cccc[n+]2[O-])c2cc(Br)c(Cl)cc2O1` [Compound 89, 2-(6-bromo-7-chloro-2,2-dimethyl-2H-1,3-benzoxazin-4-yl)pyridine 1-oxide], the inhibition in vivo at 1 mg/kg in experiment [1] was 33%. Besides, in experiment [2], the inhibition at 1 µM was -11%, the inhibition at 3 µM is -8% and the inhibition at 10 µM was -3%. In addition, in experiment [3], the inhibition at 1 µM came to 59%, the inhibition at 3 µM came out at 67% and the inhibition at 10 µM is 71%.

Source of the values: patent publication US5270308A, “1,3-benzoxazine derivatives, their production and use” (Takeda Chemical Industries, Ltd., priority 1990, dated 1993).
